Data taken from PubChem BioAssay AID179 (DTP/NCI, 2004).
Active and inactive are the calls of the source.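 How the source made its calls: active means compounds giving half or more protection of infected cells from virus-caused growth loss, again on retest; inactive means the rest.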 Where a SMILES comes first, the peptide text is derived from it.

Tested on: CEM cells HIV-1 protection, formazan growth assay
Assay: NCI AIDS Antiviral Assay
Conditions: for IC50: measured here: growth of uninfected CEM cells
How it was run: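 Human CEM cells, uninfected and HIV-1-infected, exposed to five drug concentrations; growth measured by soluble formazan assay and scored as percent protection from infection, with protecting compounds retested.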

SMILES | EC50 [µM] | IC50 [µM] | outcome
C/C(=N/O)C1CC(C)([N+](=O)[O-])CCC1(C)O (centres undefined) | > 200 | > 200 | –
Cc1ccc2c(c1)sc1nncn12 | > 100 | > 100 | –
O=c1[nH]cc(CN2CCOCC2)c(=O)[nH]1 | > 617 | > 617 | –
C=CCOc1ccc(C2(O)c3ccccc3C3=NCCCN32)cc1 (centres undefined) | > 200 | 148 | –
CCOC(=O)COc1ccc2c(C)c(CCN(CC)CC)c(=O)oc2c1 | > 631 | > 631 | –
CCOC(=O)c1cccnc1C(OC(C)=O)OC(C)=O | > 891 | 158 | –
O=C1c2ccccc2C(=O)C2OC12 (centres undefined) | > 20 | 0.977 | –
O=C1Nc2cnc(Cl)nc2Nc2ccc(Cl)cc21 | 123 | > 200 | –
O=C(O)C(Cc1ccccc1)NCc1c(O)ccc2c(-c3ccccc3)cc(=O)oc12 (centres undefined) | > 200 | > 200 | –
Cc1c(-c2ccc(N)cc2)c(=O)oc2cc(O)ccc12 | > 200 | > 200 | –
CCN1CN(c2ccccc2)C2(CCN(CC(CC3OCCO3)c3ccc(F)cc3)CC2)C1=O (centres undefined) | > 200 | 7.24 | –
CC1(C)CCCCCC(O)C(O)CCC(C)(C)C1=O (centres undefined) | > 200 | > 200 | –
COc1cc(OC)c2nc3ccccc3c(NCCCN(C)C)c2c1[N+](=O)[O-] | > 200 | 20 | –
Cc1cc(Cc2cc(C)c(NC(=O)C(=O)C3CCC4=C(SC5C=CC=CC5N4)C3=O)c(C(C)C)c2)cc(C(C)C)c1NC(=O)C(=O)C1CCC2=C(SC3C=CC=CC3N2)C1=O (centres undefined) | > 41.7 | 12 | –
O=C1/C(=C\c2cccc(Oc3ccccc3)c2)SC(c2ccccc2)N1c1cccc([N+](=O)[O-])c1 (centres undefined) | > 200 | 39.8 | –
O=[N+]([O-])c1cccc2nc3ccccc3c(NCCCCNc3c4ccccc4nc4cccc([N+](=O)[O-])c34)c12 | > 0.1 | 0.0162 | –
O=C(O)Cc1cc(=O)oc2c1ccc1ccccc12 | > 200 | 135 | –
CCOC(=O)c1cnc2c(ccc3ncccc32)c1Cl | > 66.1 | 34.7 | –
CCC/C(Cl)=N/OC(=O)Nc1ccccc1C(F)(F)F | > 20 | 3.39 | –
CCOC(=O)C(=O)Nc1nc2ccc(C)cc2s1 | – | – | inactive
O=C1CC(c2ccc(Cl)cc2)=Nc2ccccc2N1 | 6.31 | 95.5 | –

SMILES | EC50 [µM] | IC50 [µM] | outcome
CCOC(=O)C1(c2ccccc2)CCNC(=O)CC1 (centres undefined) | > 955 | > 955 | –
O=C(CCCN1CCC(C(=O)c2ccc(F)cc2)CC1)c1ccc(F)cc1 | > 24.5 | > 24.5 | –
COC(=O)c1noc2c1CSc1ccccc1-2 | > 263 | 123 | –
CCN(CC)CCCNc1ccc([N+](=O)[O-])c2nc3ccccc3c(N)c12 | > 200 | 0.214 | –
Nc1[nH]n(-c2ccccc2)c(=O)c1/C=N/C(=S)N=Nc1c(O)[nH]c2ccccc12 | > 200 | 83.2 | –
O=c1c(O)c(-c2ccccc2)oc2ccccc12 | > 93.3 | 18.6 | –
C=CCCCC(C)(C(=O)OC(C)(C)C)C1=NOC(C)(C)C1 (centres undefined) | > 200 | > 200 | –
COc1ccc(S(=O)(=O)N/N=C/c2cc(I)cc([N+](=O)[O-])c2O)cc1OC | > 355 | 60.3 | –
Cc1cc(C)nc(NS(=O)(=O)c2ccc(Nc3c4ccc(Cl)cc4nc4c(C(=O)Nc5ccc(S(N)(=O)=O)cc5)cccc34)cc2)n1 | > 52.5 | 42.7 | –
CS(=O)(=O)c1noc(N)n1 | > 1510 | 1260 | –
C[C@@]12CCC[C@@H](OC(=O)c3ccc(Br)cc3)[C@@H](C1)C(=O)CC2 | – | – | inactive
CO[C@@]12[C@@H]3N[C@@H]3CN1C1=C(C(=O)C(N3CCCC3)=C(C)C1=O)[C@@H]2COC(N)=O | > 200 | 0.631 | –
Cc1ccc(S(=O)(=O)N/N=C(/c2ccccc2)c2ccsc2C)cc1 | > 200 | 29.5 | –
O=c1c2ccccc2n2n1CC(O)C2 (centres undefined) | – | – | inactive
Cc1cc([N+](=O)[O-])ccc1Nc1cccc(Cl)c1C | – | – | inactive
O=c1cc(CNC2CC3CCC2C3)[nH]c(=O)[nH]1 (centres undefined) | – | – | inactive
Nc1ccc2c(c1)nc1n2C(c2c(F)cccc2F)SC1 (centres undefined) | > 200 | 135 | –
CC(C)OP(=O)(OC(C)C)C(C(C)C)N(C)/C(F)=N/C(F)(F)F (centres undefined) | > 200 | > 200 | –
COC(=O)/C=C(C)/C=C/C1OC(C)OCC1O (centres undefined) | > 1020 | > 1020 | –
CCC(C)C(NC(=O)C(N)CCCCN)C(=O)NC(CCC(N)=O)C(=O)NC(CO)C(=O)NC(C(=O)O)C(C)O (centres undefined) (H-KIQST-OH; configuration not given here) | > 115 | > 115 | –
CCCCNC1CCCCC[C@H]1O (some centres undefined) | > 1120 | > 1120 | –

SMILES | EC50 [µM] | IC50 [µM] | outcome
CC1CCN(C(C)C)P(=S)(Cc2ccccc2)O1 (centres undefined) | > 200 | 123 | –
N#C/C(=C\c1ccc(O)c(O)c1)C(=O)OCc1ccccc1COC(=O)/C(C#N)=C/c1ccc(O)c(O)c1 | > 200 | 8.71 | –
O=c1oc2c3c4c(cc2c2c1CCC2)CCCN4CCC3 | > 6.76 | > 6.76 | –
Cc1ccc(NC(=O)NC23CC4CC(CC(F)(C4)C2)C3)cc1 | > 61.7 | > 61.7 | –
CCCCCC/C=C\CCCCCCCCCc1c(O)c(OC)cc(O)c1CN(C)C | > 200 | 2.4 | –
Cc1cc(=O)c2c(o1)-c1c(cc(O)c(O)c1C(=O)O)OC2 | > 871 | 57.5 | –
Cc1[nH]c2ccccc2c1C1Cc2ccccc2N1C(=O)/C=C/C=C/c1ccccc1 (centres undefined) | > 9.33 | > 9.33 | –
O=C1C(=O)N(C23CC4CC(CC(C4)C2)C3)C(=S)N1c1ccccc1 | > 200 | 110 | –
CCOc1ccc(N=Nc2ccc3oc(=O)c(/C(C)=N\NC(=O)CC(=O)Nc4ccc(Cl)cc4)cc3c2)cc1 | > 13.2 | > 13.2 | –
CCN(CC)CCNC(=O)C1COc2ccc(-c3cc(=O)c4ccccc4o3)cc2O1 (centres undefined) | – | – | inactive
O=S(=O)(OI(OI(OS(=O)(=O)C(F)(F)F)c1ccccc1)c1ccccc1)C(F)(F)F | > 347 | 6.92 | –
C=CC(C)(C)c1c(OC)oc2ccc(OC)c(C)c2c1=O | > 200 | 38.9 | –
COc1cc(C2NCCC(c3ccccc3)(c3ccccc3)N2)cc(OC)c1OC (centres undefined) | > 200 | 19.5 | –
N#Cc1nc(-c2ccc(-c3nc(C#N)c(N)o3)cc2)oc1N | > 200 | > 200 | –
O=C(O)c1ccccc1C(c1cc(Br)c(O)c(Br)c1)c1cc(Br)c(O)c(Br)c1 | – | – | inactive
C[N+]12CCCCC1C(CN1C(=O)c3ccccc3C1=O)CCC2 (centres undefined) | 58.9 | > 200 | –
COc1ccccc1C(=O)N(Cc1ccccc1)c1ccc(Cl)c(C(=O)OC(C)C)c1 | > 19.5 | 15.5 | –
O=C(O)CSCc1cc(C(=O)Nc2ccc(/C=C/c3ccc(NC(=O)c4cc(CSCC(=O)O)c5cccnc5c4O)cc3S(=O)(=O)O)c(S(=O)(=O)O)c2)c(O)c2ncccc12 | 0.832 | 22.4 | –
O=C(c1ccccc1)C1C(c2ccccc2)S(=O)C(c2ccccc2)CC1(O)c1ccccc1 (centres undefined) | > 66.1 | 13.5 | –
CCCCCC=C(c1cc(C)c(OC)c(Br)c1)c1cc(C)c(OC)c(Br)c1 | > 200 | 15.5 | –
COc1ccc2c(c1)C(=O)C13CC(C(=O)O)C(OC(C)=O)(CCC21)C3 (centres undefined) | > 89.1 | > 89.1 | –
